According to patent US12595253B2, “Benzamides of pyrazolylamino-pyrimidinyl derivatives, and compositions and methods thereof” (LYNK PHARMACEUTICALS CO. LTD., priority 2019, dated 2026):

How the values were obtained:
JAK1 = biological target: T1, JAK1 (Homo sapiens, UniProt P23458); test: JAK1 microfluidic kinase assay (Caliper EZ Reader II, FAM labeled peptide substrate); assay type: biochemical; details: IC50 JAK1 (5 nM) (1 m MATP), JAK1 5 nM, 1 mM ATP
T1 construct: purchased Carna Biosciences
T1 sequence (P23458 whole entry): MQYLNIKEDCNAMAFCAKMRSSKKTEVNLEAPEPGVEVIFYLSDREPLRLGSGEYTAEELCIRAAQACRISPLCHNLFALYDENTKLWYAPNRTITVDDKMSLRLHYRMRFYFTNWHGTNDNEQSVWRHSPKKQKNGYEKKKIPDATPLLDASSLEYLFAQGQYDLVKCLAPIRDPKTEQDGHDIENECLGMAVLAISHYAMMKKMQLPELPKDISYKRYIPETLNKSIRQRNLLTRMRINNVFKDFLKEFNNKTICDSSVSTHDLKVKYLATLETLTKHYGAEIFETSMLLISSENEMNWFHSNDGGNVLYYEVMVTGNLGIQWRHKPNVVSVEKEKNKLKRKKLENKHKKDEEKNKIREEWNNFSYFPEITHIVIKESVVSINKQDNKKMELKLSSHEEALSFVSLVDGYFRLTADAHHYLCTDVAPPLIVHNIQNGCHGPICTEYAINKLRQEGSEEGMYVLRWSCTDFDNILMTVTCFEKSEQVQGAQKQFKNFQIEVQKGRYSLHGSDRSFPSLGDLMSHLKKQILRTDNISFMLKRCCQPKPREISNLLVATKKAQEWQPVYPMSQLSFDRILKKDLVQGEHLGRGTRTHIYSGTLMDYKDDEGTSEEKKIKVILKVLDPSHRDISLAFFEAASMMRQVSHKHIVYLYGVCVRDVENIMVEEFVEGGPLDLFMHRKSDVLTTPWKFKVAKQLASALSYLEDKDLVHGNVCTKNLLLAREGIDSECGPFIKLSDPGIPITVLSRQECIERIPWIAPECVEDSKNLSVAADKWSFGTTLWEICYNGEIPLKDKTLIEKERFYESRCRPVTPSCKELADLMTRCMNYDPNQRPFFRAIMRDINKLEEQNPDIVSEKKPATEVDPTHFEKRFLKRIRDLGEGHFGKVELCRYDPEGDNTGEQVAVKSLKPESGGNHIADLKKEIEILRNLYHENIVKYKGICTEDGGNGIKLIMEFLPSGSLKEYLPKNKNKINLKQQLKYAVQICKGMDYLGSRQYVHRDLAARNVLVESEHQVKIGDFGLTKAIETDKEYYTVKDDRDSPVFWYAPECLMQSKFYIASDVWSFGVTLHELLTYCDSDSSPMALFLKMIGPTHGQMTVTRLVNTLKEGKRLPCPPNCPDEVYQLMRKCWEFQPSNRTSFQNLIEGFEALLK
Method in brief: (§1)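 Microfluidic mobility-shift assay on Caliper EZ Reader II, FAM-labelled peptide phosphorylation, in 50 mM HEPES, 0.01% Brij35, 10 mM MgCl2, 2 mM DTT, 1% DMSO; enzyme conditions set for 10% substrate conversion.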

[1] = Liver microsomes study, Phase I stability (RLM); assay type: in vitro ADME, rat; details: pH 7.4
Procedure: (§2) Commercially available liver microsomes (MsLM vendor: XENOTECH; RLM, DLM, MkL, HLM vendor: Corning) were used for study the Phase I stability of test articles. […] The reaction was initiated by addition of 80 μL of the NADPH regenerating system to 320 µL of each incubation mixture per time point. […] The 0-minute samples were prepared by addition of an 80 μL aliquot of each incubation mixture to 400 μL quench reagent to precipitate proteins. And then a 20 μL aliquot of the NADPH regenerating system was added. At 10, 30, and 90 minutes, the reaction will be stopped by the addition of cold acetonitrile solution containing tolbutamide and propanolol served as internal standard. The samples taken at all time points were centrifuged at 4000×g for 15 minutes. 80 μL of supernatant are taken into 96-well assay plates pre-added with 160 μL ultrapure water, and then analyzed by LC/MS/MS(Shimadzu LC30AD & API4000/API5000)). Concentrations of test articles, control compounds in the samples were determined by using LC/MS/MS) method. Plotting of the chromatograms and peak area integrations are carried out by Analyst (AB Sciex).
(§3) In the determination of the in vitro elimination constant, ke, of the control compounds, the analyte/internal standard peak area ratios will be converted to percentage remaining (% Remaining) with the following equation: […]
(§4) The slope was measured by the natural logarithm of the percentage of the residual compound and time, T½ and CLint were calculated according to the following formulas, V/M was equal to the 1/concentration of protein.

[2] = Liver microsomes study, Phase I stability (HLM); assay type: in vitro ADME, human; details: pH 7.4
Procedure: as §2, §3, §4

JAK2 = biological target: T2, JAK2 (Homo sapiens, UniProt O60674); test: JAK2 microfluidic kinase assay (Caliper EZ Reader II, FAM labeled peptide substrate); assay type: biochemical; details: IC50 JAK2 ([…]) (1 mM ATP), 1 mM ATP
T2 construct: purchased Carna Biosciences
T2 sequence (O60674 whole entry): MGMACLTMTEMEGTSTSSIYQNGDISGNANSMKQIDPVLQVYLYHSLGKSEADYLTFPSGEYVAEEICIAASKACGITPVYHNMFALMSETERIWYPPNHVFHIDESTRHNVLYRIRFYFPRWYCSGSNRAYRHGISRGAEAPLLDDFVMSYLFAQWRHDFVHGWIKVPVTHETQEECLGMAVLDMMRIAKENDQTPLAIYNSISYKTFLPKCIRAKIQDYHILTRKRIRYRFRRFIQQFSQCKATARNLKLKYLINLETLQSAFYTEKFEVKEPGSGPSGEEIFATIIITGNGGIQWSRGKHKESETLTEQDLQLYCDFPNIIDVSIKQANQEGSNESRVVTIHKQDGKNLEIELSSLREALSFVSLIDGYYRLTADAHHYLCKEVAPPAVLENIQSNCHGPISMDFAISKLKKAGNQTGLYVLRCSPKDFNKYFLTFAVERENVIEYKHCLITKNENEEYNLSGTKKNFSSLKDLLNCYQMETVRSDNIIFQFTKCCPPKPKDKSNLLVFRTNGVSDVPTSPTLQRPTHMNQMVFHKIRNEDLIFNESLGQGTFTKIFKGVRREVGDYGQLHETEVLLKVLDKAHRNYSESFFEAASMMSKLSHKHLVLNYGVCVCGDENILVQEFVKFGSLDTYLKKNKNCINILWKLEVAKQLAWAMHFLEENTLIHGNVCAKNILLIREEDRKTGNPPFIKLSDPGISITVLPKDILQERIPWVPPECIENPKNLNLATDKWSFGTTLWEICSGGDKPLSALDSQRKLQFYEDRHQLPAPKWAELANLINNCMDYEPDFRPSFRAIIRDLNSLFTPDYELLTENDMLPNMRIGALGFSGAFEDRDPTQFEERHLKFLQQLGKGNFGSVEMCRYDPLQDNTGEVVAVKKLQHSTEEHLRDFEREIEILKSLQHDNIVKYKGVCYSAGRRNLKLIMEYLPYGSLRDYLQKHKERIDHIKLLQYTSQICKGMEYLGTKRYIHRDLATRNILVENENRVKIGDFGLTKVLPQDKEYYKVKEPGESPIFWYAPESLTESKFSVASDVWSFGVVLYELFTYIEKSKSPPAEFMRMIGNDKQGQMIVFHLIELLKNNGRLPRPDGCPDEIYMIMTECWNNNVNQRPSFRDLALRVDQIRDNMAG
Method in brief: as §1

JAK2V617F = biological target: T3, JAK2V617F (Homo sapiens, UniProt O60674, V617F); test: JAK2V617F microfluidic kinase assay (Caliper EZ Reader II, FAM labeled peptide substrate); assay type: biochemical; details: JAK2V617F 2.5 nM, 1 mM ATP
T3 construct: purchased Carna Biosciences
T3 sequence (O60674 whole entry V617F): as the sequence (O60674 whole entry) above, with V617F counted along it
Method in brief: as §1

TYK2 = biological target: T4, TYK2 (Homo sapiens, UniProt P29597); test: TYK2 microfluidic kinase assay (Caliper EZ Reader II, FAM labeled peptide substrate); assay type: biochemical; details: IC50 TYK2 ([…]) (1 mM ATP), TYK2 […], 1 mM ATP
T4 construct: purchased Carna Biosciences
T4 sequence (P29597 whole entry): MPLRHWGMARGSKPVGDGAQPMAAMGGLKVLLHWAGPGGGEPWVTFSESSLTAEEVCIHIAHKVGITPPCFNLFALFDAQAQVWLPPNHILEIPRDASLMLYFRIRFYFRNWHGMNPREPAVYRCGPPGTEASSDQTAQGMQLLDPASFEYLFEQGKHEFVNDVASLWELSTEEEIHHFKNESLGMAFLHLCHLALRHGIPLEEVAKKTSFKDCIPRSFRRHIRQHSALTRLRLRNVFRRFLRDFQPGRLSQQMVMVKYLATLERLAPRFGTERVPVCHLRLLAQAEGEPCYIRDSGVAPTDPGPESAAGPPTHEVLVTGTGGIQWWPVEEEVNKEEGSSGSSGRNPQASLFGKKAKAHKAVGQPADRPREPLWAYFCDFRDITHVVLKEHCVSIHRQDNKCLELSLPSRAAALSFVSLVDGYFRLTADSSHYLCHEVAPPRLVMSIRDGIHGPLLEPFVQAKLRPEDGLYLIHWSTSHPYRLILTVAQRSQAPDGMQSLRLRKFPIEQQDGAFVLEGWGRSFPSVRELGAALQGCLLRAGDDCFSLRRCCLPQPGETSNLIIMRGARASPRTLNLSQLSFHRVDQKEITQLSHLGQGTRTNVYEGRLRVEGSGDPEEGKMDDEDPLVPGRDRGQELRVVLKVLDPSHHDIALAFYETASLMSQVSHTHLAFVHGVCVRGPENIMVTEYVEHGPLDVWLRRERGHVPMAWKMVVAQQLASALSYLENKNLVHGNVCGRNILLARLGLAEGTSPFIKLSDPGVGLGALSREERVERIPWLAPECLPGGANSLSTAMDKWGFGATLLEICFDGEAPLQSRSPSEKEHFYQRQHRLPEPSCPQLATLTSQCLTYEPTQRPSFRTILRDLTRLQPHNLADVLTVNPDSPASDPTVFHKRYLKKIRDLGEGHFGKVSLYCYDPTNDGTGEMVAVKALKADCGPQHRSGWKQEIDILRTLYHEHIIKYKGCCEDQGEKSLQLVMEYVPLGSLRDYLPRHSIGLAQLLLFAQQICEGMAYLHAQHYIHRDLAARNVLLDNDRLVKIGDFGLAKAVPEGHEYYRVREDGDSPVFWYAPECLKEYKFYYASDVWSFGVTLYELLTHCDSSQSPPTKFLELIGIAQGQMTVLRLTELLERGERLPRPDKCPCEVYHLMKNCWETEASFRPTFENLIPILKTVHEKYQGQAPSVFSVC
Method in brief: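 3-fold series, top 5 μM, 1% DMSO; 10 min preincubation with enzyme, RT. Buffer 50 mM HEPES/10 mM MgCl2/2 mM DTT/0.01% Brij35. Run times JAK1 120 min, JAK2 20, JAK2V617F 30, TYK2 10. Stopped with 50 mM EDTA; IC50 from % inhibition vs no-enzyme and DMSO controls.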

[3] = rat liver microsomes 0.5 mg/mL, 1 μM test article, read-out: RLM Clint
[4] = human liver microsomes 0.5 mg/mL, 1 μM test article, read-out: HLM Clint

Row | IC50 (JAK1) [nM] | microsomal CLint at 1 μM [1, 3] [µL/min/mg] | microsomal CLint at 1 μM [2, 4] [µL/min/mg] | IC50 (JAK2) [nM] | IC50 (JAK2V617F) [nM] | IC50 (TYK2) [nM] | Compound | microsomal CLint at 1 μM ([1]; rat, microsomes) [µL/min/mg] | microsomal CLint at 1 μM ([2]; human, microsomes) [µL/min/mg]
1 | 12.5 | 93.6 | 204 |  |  |  | Cc1cnc(Nc2cnn(C3CCN(C(=O)C45CC(C4)C5)CC3)c2)nc1-c1ccc(C(=O)NCC#N)cc1 [Example 114, 4-(2-((1-(1-(Bicyclo[1.1.1]pentane-1-carbonyl)piperidin-4-yl)-1H-pyrazol-4-yl)amino)-5-methylpyrimidin-4-yl)-N-(cyanomethyl)benzamide] |  | 
2 | 12 | 80.1 | 6.7 | 0.35 | 15.8 |  | CO[C@H]1CC[C@H](n2cc(Nc3ncc(C)c(-c4ccc(C(=O)N[C@@H](C)C#N)cc4)n3)cn2)CC1 [Example 91, N—((S)-1-cyanoethyl)-4-(2-((1-(trans-4-methoxycyclohexyl)-1H-pyrazol-4-yl)amino)-5-methylpyrimidin-4-yl)benzamide] |  | 
3 | 19 | 77.3 | 35.2 | 13 | 56 |  | CC(C)(C#N)CNC(=O)c1ccc(-c2nc(Nc3cnn(C4CC4)c3)ncc2Cl)cc1 [Example 123, 4-(5-Chloro-2-((1-cyclopropyl-1H-pyrazol-4-yl)amino)pyrimidin-4-yl)-N-(2-cyano-2-methylpropyl)benzamide] |  | 
4 | 15.3 | 40.8 | 24.6 | 30.6 |  |  | N#CC1(CNC(=O)c2ccc(-c3nc(Nc4cnn(C5CC5)c4)ncc3Cl)cc2)CC1 [Example 60, 4-(5-Chloro-2-((1-cyclopropyl-1H-pyrazol-4-yl)amino)pyrimidin-4-yl)-N-((1-cyanocyclopropyl)methyl)benzamide] |  | 
5 | 432 | 8.5 | 10.7 | 688 |  |  | C[C@@H](C#N)NC(=O)c1ccc(-c2nc(Nc3cnn(C4CC4)c3)ncc2C(F)F)cc1F [Example 138, (S)—N-(1-cyanoethyl)-4-(2-((1-cyclopropyl-1H-pyrazol-4-yl)amino)-5-(difluoromethyl)pyrimidin-4-yl)-2-fluorobenzamide] |  | 
6 | 37.8 | 47.2 | 30 |  | 45.3 |  | N#CC1(CNC(=O)c2ccc(-c3nc(Nc4cnn(C5CCOCC5)c4)ncc3Cl)cc2)CC1 [Example 78, 4-(5-Chloro-2-((1-(tetrahydro-2H-pyran-4-yl)-1H-pyrazol-4-yl)amino)pyrimidin-4-yl)-N-((1-cyanocyclopropyl)methyl)benzamide] |  | 
7 | 12.4 | 32.5 | 42.9 |  | 7.22 |  | Cc1cnc(Nc2cnn(C3C[C@H]4CC[C@@H](C3)O4)c2)nc1-c1ccc(C(=O)N[C@@H](C)C#N)cc1 (stereo partly drawn) [Example 70, 4-(2-((1-((1R,5S)-8-oxabicyclo[3.2.1]octan-3-yl)-1H-pyrazol-4-yl)amino)-5-methylpyrimidin-4-yl)-N—((S)-1-cyanoethyl)benzamide] |  | 
8 | 13.9 | 38.6 | 19.4 |  | 30.1 |  | Cc1cnc(Nc2cnn(C3CCOCC3)c2)nc1-c1ccc(C(=O)N[C@@H](C)C#N)cc1 [Example 144, (S)—N-(1-cyanoethyl)-4-(5-methyl-2-((1-(tetrahydro-2H-pyran-4-yl)-1H-pyrazol-4-yl)amino)pyrimidin-4-yl)benzamide] |  | 
9 | 39.8 | 47.5 | 16.2 |  | 131 |  | N#CCNC(=O)c1ccc(-c2nc(Nc3cnn(C4CC4)c3)ncc2Cl)cn1 [Example 120, 5-(5-Chloro-2-((1-cyclopropyl-1H-pyrazol-4-yl)amino)pyrimidin-4-yl)-N-(cyanomethyl)picolinamide] |  | 
10 | 8.7 | 17.1 | 33.9 |  | 0.51 |  | Cc1cnc(Nc2cnn(C3CCN(C(=O)C(C)(C)O)CC3)c2)nc1-c1ccc(C(=O)NCC#N)cc1 [Example 51, N-(cyanomethyl)-4-(2-((1-(1-(2-hydroxy-2-methylpropanoyl)piperidin-4-yl)-1H-pyrazol-4-yl)amino)-5-methylpyrimidin-4-yl)benzamide] |  | 
11 | 13.5 |  | 38.7 | 2.74 | 43.9 |  | COCCn1cc(Nc2ncc(Cl)c(-c3ccc(C(=O)N[C@@H](C)C#N)cc3)n2)cn1 [Example 177, (S)-4-(5-chloro-2-((1-(2-methoxyethyl)-1H-pyrazol-4-yl)amino)pyrimidin-4-yl)-N-(1-cyanoethyl)benzamide] |  | 
12 | 20 | 26.1 |  | 30.9 | 67.8 | 45.2 | Cc1cnc(Nc2cnn(C3CC3)c2)nc1-c1ccc(C(=O)NCC#N)nc1 [Example 83, N-(cyanomethyl)-5-(2-((1-cyclopropyl-1H-pyrazol-4-yl)amino)-5-methylpyrimidin-4-yl)picolinamide] |  | 
13 | 23.5 | 80.8 | 56.4 |  | 4.19 |  | Cc1cnc(Nc2cnn(C3CCN(C(=O)C4CC4)CC3)c2)nc1-c1ccc(C(=O)NCC#N)nc1 [Example 150, N-(cyanomethyl)-5-(2-((1-(1-(cyclopropanecarbonyl)piperidin-4-yl)-1H-pyrazol-4-yl)amino)-5-methylpyrimidin-4-yl)picolinamide] |  | 
14 | 12 | 69 | 14.7 |  | 4.5 |  | Cc1cnc(Nc2cnn([C@H]3CC[C@H](C#N)CC3)c2)nc1-c1ccc(C(=O)N[C@@H](C)C#N)cc1 [Example 154, 4-(2-((1-(Trans-4-cyanocyclohexyl)-1H-pyrazol-4-yl)amino)-5-methylpyrimidin-4-yl)-N—((S)-1-cyanoethyl)benzamide] |  | 
15 | 23.1 |  | 10.6 | 71 |  | 215 | Cc1cnc(Nc2cnn(C3CCN(C)CC3)c2)nc1-c1ccc(C(=O)N[C@H](C)C#N)cc1 [Example 62, (R)—N-(1-cyanoethyl)-4-(5-methyl-2-((1-(1-methylpiperidin-4-yl)-1H-pyrazol-4-yl)amino)pyrimidin-4-yl)benzamide] |  | 
16 | 30.4 | 228 | 141 |  | 9.07 |  | Cc1cnc(Nc2cnn(C3C[C@@H](C)O[C@@H](C)C3)c2)nc1-c1ccc(C(=O)NCC#N)cc1 (stereo partly drawn) [Example 68] |  | 
17 | 6.55 |  | 19.5 | 0.54 | 5.11 | 78.7 | CN1CCC(n2cc(Nc3ncc(Cl)c(-c4ccc(C(=O)NCC#N)cc4)n3)cn2)CC1 [Example 44, 4-(5-Chloro-2-((1-(1-methylpiperidin-4-yl)-1H-pyrazol-4-yl)amino)pyrimidin-4-yl)-N-(cyanomethyl)benzamide] |  | 
18 | 17.8 |  | 147 |  | 1.3 |  | CC(C)(C)C(=O)N1CCC(n2cc(Nc3ncc(Cl)c(-c4ccc(C(=O)NCC#N)cc4)n3)cn2)CC1 [Example 98, 4-(5-Chloro-2-((1-(1-pivaloylpiperidin-4-yl)-1H-pyrazol-4-yl)amino)pyrimidin-4-yl)-N-(cyanomethyl)benzamide] |  | 
19 | 12.9 |  | 22.6 |  | 8.91 |  | Cc1cnc(Nc2cnn(C3CCOCC3)c2)nc1-c1ccc(C(=O)N[C@@H](C)C(F)(F)F)cc1 [Example 75, (S)-4-(5-Methyl-2-((1-(tetrahydro-2H-pyran-4-yl)-1H-pyrazol-4-yl)amino)pyrimidin-4-yl)-N-(1,1,1-trifluoropropan-2-yl)benzamide] |  | 

Row | Compound | IC50 (JAK1) [nM] | microsomal CLint at 1 μM [1, 3] [µL/min/mg] | microsomal CLint at 1 μM [2, 4] [µL/min/mg] | IC50 (JAK2) [nM] | IC50 (JAK2V617F) [nM] | IC50 (TYK2) [nM] | microsomal CLint at 1 μM ([1]; rat, microsomes) [µL/min/mg] | microsomal CLint at 1 μM ([2]; human, microsomes) [µL/min/mg]
20 | Cc1cnc(Nc2cnn(C3CC4CCC(C3)N4CC(F)(F)F)c2)nc1-c1ccc(C(=O)NCC#N)cc1 [Example 134, N-(cyanomethyl)-4-(5-methyl-2-((1-((1R,3s,5S)-8-(2,2,2-trifluoroethyl)-8-azabicyclo[3.2.1]octan-3-yl)-1H-pyrazol-4-yl)amino)pyrimidin-4-yl)benzamide] | 22.4 |  |  | 10.7 |  |  | 1950 | 1190
